Experimental data from PubChem BioAssay AID1996.
≈ marks a conversion by molar mass, not a printed value.

settings: buffer; pH 7.4; 200.0 µM

SMILES | solubility kinetic
CCN1C(C(=O)Nc2cc(C)on2)=C(O)c2ccccc2S1(=O)=O | > 52.4 µg/mL
O=C(NCc1c[nH]c2ccccc12)c1ccccc1 | > 37.5 µg/mL
CCN(Cc1nc(-c2ccccc2)no1)C(=O)c1ccc2c(c1)OCO2 | 36.5 µg/mL (≈ 104 µM)
COc1ccccc1CC(=O)NCCCc1ccccc1 | > 42.5 µg/mL
O=C(OCC(=O)N1CCOCC1)c1ccc(F)cc1Cl | > 45.3 µg/mL
CSc1ccccc1NC(=O)c1ccc2c(c1)CCN2S(C)(=O)=O | 9.1 µg/mL (≈ 25.1 µM)
O=S(=O)(c1ccc(F)cc1)n1cnc2ccccc21 | 28.4 µg/mL (≈ 103 µM)
COc1ccc(COC(=O)CNC(=O)C2CCCCC2)cc1F | 18.4 µg/mL (≈ 56.9 µM)
CC1CCCC(NC(=O)COC(=O)c2cccs2)C1C (centres undefined) | 43.1 µg/mL (≈ 146 µM)
CN(Cc1cn(C)nc1-c1ccccc1F)Cc1nccn1C | > 47 µg/mL
CCN(CC)CCOC(=O)c1ccc(Cl)cc1Cl.Cl | > 49 µg/mL
CC(C)(C)C1CCC(=NNC(=O)C(=O)NCc2cccnc2)CC1 (centres undefined) | > 49.6 µg/mL
C=CCSc1nc2c(c(=O)[nH]c(=O)n2C)n1Cc1ccccc1 | 3.9 µg/mL (≈ 11.9 µM)
CN1C(=O)NC(c2ccc(Cl)cc2)C2=C1CC(C)(C)CC2=O (centres undefined) | > 47.8 µg/mL
Cc1ccc(CNc2ccccc2C(=O)O)s1 | 23 µg/mL (≈ 93 µM)
Cc1cc(NC(=O)c2ccc(C)c(C)c2)no1 | 3.6 µg/mL (≈ 15.6 µM)
O=C(COC(=O)Cc1ccc(S(=O)(=O)N2CCOCC2)s1)Nc1ccccc1 | 57 µg/mL (≈ 134 µM)
CC(=O)/C(C=Nc1noc(C)c1Br)=C(\C)O | 37.6 µg/mL (≈ 131 µM)
Cc1ccc(C(=O)NC(C)c2ccc(S(N)(=O)=O)cc2)s1 (centres undefined) | > 48.7 µg/mL
COc1ccc(C(=O)Nc2ccncc2)cc1[N+](=O)[O-] | 36 µg/mL (≈ 132 µM)

SMILES | solubility kinetic
NCC(c1ccccc1Cl)c1c[nH]c2ccccc12 (centres undefined) | > 40.6 µg/mL
O=C(COc1ccccc1)N1CCN(C(=O)c2ccccc2F)CC1 | > 51.4 µg/mL
Cc1cc(N2CC(C(=O)Nc3nccs3)CC2=O)ccc1C(C)C (centres undefined) | 1.4 µg/mL (≈ 4.08 µM)
CC(C)c1ccc(NC(=O)CN2CCN(c3ccccn3)CC2)cc1 | 1 µg/mL (≈ 2.95 µM)
CC(C)(C)C(=O)Nc1nc2cc3c(cc2s1)OCO3 | 0.6 µg/mL (≈ 2.16 µM)
COc1ccc(CSc2ncnc3sccc23)cc1F | < 0.3 µg/mL
Cc1ccc2c(C(=O)CN3CC(C)CC(C)C3)c(C)[nH]c2c1 (centres undefined) | 38.6 µg/mL (≈ 129 µM)
Nc1ccc(C(=O)OCc2ccncc2)cc1[N+](=O)[O-] | 14 µg/mL (≈ 51.2 µM)
CCOC(=O)CCSc1cc(C)c2ccccc2n1 | 4.3 µg/mL (≈ 15.6 µM)
Cc1cccc(OCCCN2CCOCC2)c1C | 25.4 µg/mL (≈ 102 µM)
Cc1ccc(S(=O)(=O)N2CCC[C@H]2C(=O)OCC(=O)N2CCc3ccccc32)cc1 | 10.8 µg/mL (≈ 25.2 µM)
Cc1cccc(NC(=S)NC(=O)c2ccc(-c3ccccc3)cc2)n1 | 0.5 µg/mL (≈ 1.44 µM)
O=C(O)c1ccc(Nc2nc(-c3cccnc3)cs2)cc1O | > 47 µg/mL
CC1C(=O)Nc2ccccc2N1C(=O)c1ccc(O)cc1 (centres undefined) | > 42.3 µg/mL
O=C(c1cccc(F)c1)N1CCCc2ccccc21 | 28.1 µg/mL (≈ 110 µM)
COc1ccc(Cc2nc(C)cc(Cl)n2)cc1[N+](=O)[O-].Cl | > 49.5 µg/mL
COc1ccccc1/C=C/C(=O)Nc1ccc(N2CCOCC2)cc1 | 1 µg/mL (≈ 2.96 µM)
O=C(CSc1n[nH]c(=O)n1C1CC1)NCc1ccccc1Cl | > 50.8 µg/mL
COc1ccc(CC(=O)OCC(=O)NC2CC2)cc1 | > 39.5 µg/mL
CSc1cccc(NC(=O)c2cccc3cccnc23)c1 | 5.7 µg/mL (≈ 19.4 µM)

SMILES | solubility kinetic
O=C(Nc1ccc(NC(=O)c2ccccc2O)cc1)Nc1ccc(F)cc1F | 1.1 µg/mL (≈ 2.87 µM)
O=C(Nc1ccc(Nc2ccccc2)cc1)Nc1ccccc1Cl | < 0.2 µg/mL
O=C(Nc1ccccc1Cl)NC1(C(=O)N2CCC(O)CC2)CCCCC1 | > 57 µg/mL
Cc1ccccc1OCc1ccc(C(=O)N2CC(C)OC(C)C2)o1 (centres undefined) | 47.8 µg/mL (≈ 145 µM)
O=C(c1ccccc1)c1cc2c(cc1[N+](=O)[O-])OCCO2 | 7.3 µg/mL (≈ 25.6 µM)
Cc1cc(C)c(S(=O)(=O)NCc2cccnc2)c(C)c1 | > 43.6 µg/mL
O=C(NC(=O)N1CCC2(CC1)OCCO2)c1ccc(Cl)cc1 | > 48.7 µg/mL
C/C(=N\NC(=O)c1cc(C)nc2ccccc12)c1ccccn1 | > 45.7 µg/mL
Cc1ccc(OCCCC(=O)NC(C)c2ccccc2)c(C)c1 (centres undefined) | 22.6 µg/mL (≈ 72.6 µM)
CCOc1cc2c3c(c1)C(C)=CC(C)(C)N3C(=O)C2=O | < 0.6 µg/mL
COc1cccc(NC(=S)N2c3ccccc3CC2C)c1 (centres undefined) | 20.3 µg/mL (≈ 68 µM)
O=C(OCC(=O)N1CCCC1=O)c1nc(Cl)c(Cl)c(Cl)c1Cl | 32.9 µg/mL (≈ 85.2 µM)
Cc1c(Cl)cccc1NC(=O)NCc1ccccn1 | 38.5 µg/mL (≈ 140 µM)
Cc1cccc[n+]1CC(=O)c1ccc(Cl)cc1.[Cl-] | 32.9 µg/mL
O=C(CCc1ccc(O)c(O)c1)N/N=C/c1ccc2c(c1)OCO2 | > 49.2 µg/mL
CCOc1ccc(NC(=O)c2cc(Cl)nc3ccccc23)cc1 | 0.4 µg/mL (≈ 1.22 µM)
Cc1c(NC(=O)c2ccc(NS(=O)(=O)c3ccc(F)c(F)c3)cc2)c(=O)n(-c2ccccc2)n1C | > 74.8 µg/mL
COCCSc1nnc(NC(=O)c2ccco2)s1 | > 42.8 µg/mL
NS(=O)(=O)c1ccc(NC(=O)C(=O)NCCC(=O)O)cc1 | > 47.3 µg/mL
